This note sets out measurements from PubChem BioAssay AID1996.

One may read the kinetic solubility as the concentration staying in solution when a stock, usually in DMSO, is diluted into the medium.

SMILES strings stand for the structures. Converted amounts (≈) assume the structure as drawn.

For this series the following is noted: buffer; pH 7.4; 200.0 µM.
The compound `NS(=O)(=O)c1ccc(CCN2C(=O)CCC2=O)cc1` yielded a solubility (kinetic) above 42.3 µg/mL.

`COc1ccc(CN2CCc3c([nH]c4ccccc34)C2)cc1Br` came in with a solubility (kinetic) of 9.8 µg/mL (≈ 26.4 µM). Next, `CCOC(=O)CNC(=S)N(Cc1ccccc1)Cc1cccs1`: 19.8 µg/mL (≈ 56.8 µM). Next, `CCCCOC(=O)C1=C(C)NC(=O)NC1c1cccc([N+](=O)[O-])c1` (configuration not stated): 12.3 µg/mL (≈ 36.9 µM).

For `COc1ccc(C(=O)COc2ncnc3cc(Cl)ccc23)cc1`, the kinetic solubility was below 0.4 µg/mL. For the compound `CN(C)C(C)(C)C#CC(O)(c1ccccc1)c1ccccc1`, the solubility (kinetic) was above 44 µg/mL.

As to `Cc1cccc(NC(=O)C(C)n2cc([N+](=O)[O-])cn2)n1` (configuration not stated), the kinetic solubility was above 41.3 µg/mL. Next, `N#C/C(=C(/O)CCl)c1nc(-c2ccccc2)cs1`: 41.3 µg/mL (≈ 149 µM); `COc1cccc(C(=O)Nc2ccc(NC(=O)C3CC3)nc2)c1`: 1.6 µg/mL (≈ 5.14 µM); `Cc1cc(N/C=C(\C#N)S(=O)(=O)c2ccc(Cl)cc2)nc(C)n1`: 12.9 µg/mL (≈ 37 µM). With `Cc1ccc(N2C(=O)C3C4C=CC(CC4)C3C2=O)c([N+](=O)[O-])c1` (configuration not stated) the figure was 17.7 µg/mL (≈ 56.7 µM); with `Cc1ccnc(NC(=O)c2ccc3[nH]c(=O)c(=O)[nH]c3c2)c1`, 2.2 µg/mL (≈ 7.43 µM); with `Cc1ccc(C)c(S(=O)(=O)NCc2ccc(C(=O)N3CCOCC3)cc2)c1`, above 58.3 µg/mL.

`COc1ccc(C(=O)NC2CCSc3ccccc32)cc1F` (configuration not stated) had a solubility (kinetic) of 2.9 µg/mL (≈ 9.14 µM). With `CC(NC(=O)c1ccccc1)C(=O)N/N=C/c1ccco1` (configuration not stated) the figure was above 42.8 µg/mL; with `COc1cccc(C(=O)CC(=O)C(=O)Nc2cccc([N+](=O)[O-])c2C)c1`, 31.6 µg/mL (≈ 88.7 µM); with `Cc1c(C(=O)N2CCOCC2)sc(NC(=O)C(C)C)c1C#N`, above 48.2 µg/mL.

For `CC(C)(C)NS(=O)(=O)c1ccc(NC(=S)NC(=O)C2CC2)cc1`, the solubility (kinetic) came out at 3 µg/mL (≈ 8.44 µM).

`Cc1cc(OC(=O)c2ccc(F)cc2)c([N+](=O)[O-])c(=O)[nH]1` showed a kinetic solubility of 43.2 µg/mL (≈ 148 µM). Next, `O=C(Nc1ccccc1Cl)c1csc(-c2cccnc2)n1`: 4.3 µg/mL (≈ 13.6 µM); `CN(CC(O)Cn1cnc2c1c(=O)n(C)c(=O)n2C)c1ccccc1` (configuration not stated): above 51.5 µg/mL; `CCC(C)NC(=O)COC(=O)c1ccc(Cl)cc1O` (configuration not stated): 4.7 µg/mL (≈ 16.4 µM). Next, `COc1cc(C(=O)NCc2ccc3c(c2)OCO3)c([N+](=O)[O-])cc1OC`: 38.3 µg/mL (≈ 106 µM). With `O=C(COC(=O)CSc1ccc([N+](=O)[O-])cc1)NCC1CCCO1` (configuration not stated), the kinetic solubility is above 53.2 µg/mL. With `Cc1ccc2c(CN3CCC(C(N)=O)CC3)cc(=O)oc2c1C` the figure was 46.2 µg/mL (≈ 147 µM). With `CCOC(=O)/C(C#N)=C/c1c(Oc2cccc(C)c2)nc2ccccn2c1=O` the figure was 0.7 µg/mL (≈ 1.86 µM). Next, `O=C1c2ccccc2C(O)(c2ccccc2)N1C1CC1` (configuration not stated): 38.3 µg/mL (≈ 144 µM); `Cc1ccccc1NC(=O)c1c(C)cc(=O)oc1C`: above 38.6 µg/mL. Regarding `COc1ccc(/C=C(\C)c2nc(C)c(-c3ccccc3)c(=O)[nH]2)cc1`, the kinetic solubility was determined as 1.4 µg/mL (≈ 4.21 µM). Next, `CCOc1ccccc1NC(=S)NC1CC2CCC1C2` (configuration not stated): 5 µg/mL (≈ 17.2 µM).

In turn, `CC(C(=O)OCC(=O)c1ccccc1)N1C(=O)c2ccccc2C1=O` (configuration not stated) had a solubility (kinetic) of 40.4 µg/mL (≈ 120 µM). `CC(C)CN(CC(C)C)C(=S)Nc1ccc(Cl)cc1` had a solubility (kinetic) of 2.2 µg/mL (≈ 7.36 µM). Next, `CCN1C(=O)CSC1=Nc1ccc(OC)cc1`: 33.4 µg/mL (≈ 133 µM). With `NC(=O)Cn1cc(C(=O)c2ccccc2)c2ccccc21` the figure was 10.8 µg/mL (≈ 38.8 µM); with `C/C=C/COC(=O)C1=C(C)NC(=O)NC1c1ccc2c(c1)OCO2` (configuration not stated), 15.5 µg/mL (≈ 46.9 µM).

Consider `COc1ccc(NC(=O)C(Br)C(C)C)cc1` (configuration not stated), for which the kinetic solubility was found to be 40.7 µg/mL (≈ 142 µM). With `COc1cccc(NS(=O)(=O)c2ccc3c(c2)CCN3C(C)=O)c1`, the solubility (kinetic) is 3.3 µg/mL (≈ 9.53 µM). For the compound `CCOC(=O)C(c1ccccc1)C(Nc1ccc(F)cc1)c1ccccn1` (configuration not stated), the kinetic solubility was 11.9 µg/mL (≈ 32.7 µM). Next, `CN1CCN2c3ccccc3Cc3ccccc3C2C1.Cl` (configuration not stated): above 45.1 µg/mL; `COc1ccc(S(=O)(=O)NCC2CCCO2)cc1Cl` (configuration not stated): 34.2 µg/mL (≈ 112 µM); `Cc1ccc(N2CCN(S(=O)(=O)N3CCCCC3)CC2)c(C)c1`: 3.8 µg/mL (≈ 11.3 µM).

In turn, `O=C(Nc1ccc(Cl)cc1)Nc1ccc2c(c1)OCO2` had a kinetic solubility of 0.4 µg/mL (≈ 1.38 µM). Next, `CCOc1ccc(NC(=O)c2[nH]c(C)c(C(C)=O)c2C)cc1`: 3.4 µg/mL (≈ 11.3 µM); `CC(C)C(OC(=O)c1cccs1)C(=O)NCCc1ccccc1` (configuration not stated): 45.8 µg/mL (≈ 138 µM); `COc1ccccc1C(=O)Nc1ccc(Br)cc1C`: below 0.7 µg/mL. Next, `CCN1CCN(c2oc(-c3ccc([N+](=O)[O-])cc3)nc2C#N)CC1`: 4 µg/mL (≈ 12.2 µM); `NC(=O)c1sc2nc3c(cc2c1N)CCC3`: 31.3 µg/mL (≈ 134 µM); `CS(=O)(=O)c1ccc2nc(NC(=O)C3CC3)sc2c1`: 25.3 µg/mL (≈ 85.4 µM). `Cc1ccc(SCC(=O)NC(=O)c2ccccc2Br)c(C)c1` returned a kinetic solubility above 56.7 µg/mL. In turn, `CC1CCCC(C)N1C(=O)COC(=O)CCC1CCCC1` (configuration not stated) returned a solubility (kinetic) of 30.1 µg/mL (≈ 102 µM). The compound `Cc1cc(C(=O)OCC(=O)N2C(C)CCCC2C)c2ccccc2n1` (configuration not stated) yielded a kinetic solubility above 51.1 µg/mL.

Compound `CC(C)(CN)CC(=O)O.Cl` showed a kinetic solubility of 23.2 µg/mL. Take `O=S(=O)(Nc1ccc(C(F)(F)F)cn1)c1ccccc1`: the solubility (kinetic) worked out at 45.3 µg/mL (≈ 150 µM). Next, `COc1ccc(Nc2cc(C)c3ccccc3n2)cc1`: 12.6 µg/mL (≈ 47.7 µM). The compound `Cc1ccc(C(=O)COC(=O)CN2C(=O)C3C4C=CC(C4)C3C2=O)cc1C` (configuration not stated) registered a kinetic solubility above 55.1 µg/mL. With `COc1cc(C)ccc1OC(C)C(=O)Nc1ccc(N2CCCCC2)cc1` (configuration not stated) the figure was 2.7 µg/mL (≈ 7.33 µM). Compound `O=C(c1cc(-c2ccc(O)cc2)on1)N1CCCCCC1` came in with a solubility (kinetic) above 42.9 µg/mL. With `CCN(CC)S(=O)(=O)c1ccc(/C=C/C(=O)OCC(=O)NC(=O)C2COc3ccccc3O2)cc1` (configuration not stated) the figure was 21 µg/mL (≈ 41.8 µM).

`N/C(=N\OC(=O)c1ccc(Cl)cc1Cl)c1ccncc1` displayed a solubility (kinetic) of 16.5 µg/mL (≈ 53.2 µM). Next, `O=C(COC(=O)c1ccc(O)cc1)Nc1ccccc1`: above 40.7 µg/mL; `Cc1nc(N)[nH]c(=O)c1CC(=O)OCCCl`: 30.4 µg/mL (≈ 124 µM). For the compound `Cc1ccc(N=CC2=C(O)CC(c3ccccc3Cl)CC2=O)cc1` (configuration not stated), the solubility (kinetic) was below 0.7 µg/mL. Next, `CC(Sc1nc2ccccc2[nH]1)C(=O)NC1CCCCC1C` (configuration not stated): 14.5 µg/mL (≈ 45.7 µM); `COc1cc(CNCCNC(=O)c2cccs2)cc(OC)c1OC`: 44.1 µg/mL (≈ 126 µM); `O=[N+]([O-])c1cc(S(=O)(=O)N2CCOCC2)ccc1NS(=O)(=O)c1ccccc1`: above 64.1 µg/mL. With `COC(=O)c1ccc(OC(=O)c2cccnc2SC)cc1` the figure was below 0.6 µg/mL; with `CC1CCCCN1CCCNc1c(C=O)c(=O)[nH]c2ccccc12` (configuration not stated), 46.7 µg/mL (≈ 143 µM); with `CN1CCN(CC(C)(C)NS(=O)(=O)c2ccccc2)CC1`, above 46.7 µg/mL.

For `CCc1ccc(S(=O)(=O)n2c(C)nc3ccccc32)cc1`, the kinetic solubility stood at 40.3 µg/mL (≈ 134 µM). With `Cn1ccsc1=NC(=O)c1ccc([N+](=O)[O-])o1` the figure was 18.4 µg/mL (≈ 72.7 µM); with `COc1ccc(NC(=O)c2ccc(S(=O)(=O)N3CCOCC3)o2)cc1`, 10.7 µg/mL (≈ 29.2 µM). With `Cc1ccc(NC(=O)/C(=C\c2ccccc2)NC(=O)c2ccco2)cc1` the figure was 4.7 µg/mL (≈ 13.6 µM); with `O=C(COc1ccc(Br)cc1)N1CCNC1=O`, above 44.9 µg/mL; with `CCOc1ccccc1OCCCC(=O)Nc1cc(S(=O)(=O)N2CCOCC2)ccc1OC`, 11.1 µg/mL (≈ 23.2 µM). With `COc1ccc(CN2C(=O)C(C)Oc3ccccc32)cc1` (configuration not stated), the solubility (kinetic) was 23.4 µg/mL (≈ 82.6 µM).

For `CC(C)(C)c1ccc(C(=O)C2CCCN(C3CCC3)C2)cc1` (configuration not stated), the solubility (kinetic) came to 37.9 µg/mL (≈ 127 µM). With `O=C([O-])Cc1csc(-c2cccc(Oc3ccccc3)c2)n1.[Na+]` the figure was 49.3 µg/mL.

`Cc1cc(C)c2[nH]c(C(=O)Nc3ccc4c(c3)OCO4)cc2c1` showed a solubility (kinetic) of 2.2 µg/mL (≈ 7.14 µM). With `Cc1csc(NC(=O)c2cncc(Br)c2)n1` the figure was 4.7 µg/mL (≈ 15.8 µM); with `O=C(Cc1ccccc1F)Nc1ccc(S(=O)(=O)N2CCCC2)cc1`, 44.9 µg/mL (≈ 124 µM). With `Cc1ccc(S(=O)(=O)/N=C(/Nc2ccc([N+](=O)[O-])cc2[N+](=O)[O-])c2ccccc2)cc1` the figure was 5.9 µg/mL (≈ 13.4 µM); with `CC(=O)NC(Cc1c[nH]c2ccccc12)C(=O)NCc1ccco1` (configuration not stated), above 48.8 µg/mL.

`COc1ccc(CN2CCCCCC2)cc1Br` gave a solubility (kinetic) of 43.3 µg/mL (≈ 145 µM).

On to `CCCCc1c(O)c2cccc3c2n(c1=O)CCC3`, for which the solubility (kinetic) came out at 35.2 µg/mL (≈ 137 µM). The solubility kinetic values of the last two compounds are within 1.5-fold of each other. With `O=C(Cn1ccnc1[N+](=O)[O-])NCc1ccccc1` the figure was above 39 µg/mL. Next, `Cc1nnc(SCC(=O)NC2CCCCCC2)n1C(C)C`: above 46.6 µg/mL; `Cn1cnnc1Sc1ccc(S(C)(=O)=O)cc1[N+](=O)[O-]`: above 47.1 µg/mL.

For the compound `C/C(=N\NC(=O)C1CC1)c1ccc(C)c(C)c1`, the kinetic solubility is above 34.5 µg/mL. With `COc1cc(OC)cc(C(=O)Nc2cccc3ccccc23)c1` the figure was 1.9 µg/mL (≈ 6.18 µM). Next, `CC1(C(=O)N2CCN(C(=O)c3ccco3)CC2)CC1(Br)Br` (configuration not stated): above 63 µg/mL.

In turn, `CCN(C(=O)COC(=O)c1cc(OC)ccc1Br)C1CCS(=O)(=O)C1` (configuration not stated) came in with a solubility (kinetic) above 65.1 µg/mL. Next, `CCN(CC)c1ccc(/C=C(\C#N)C(N)=O)cc1`: above 36.5 µg/mL; `Cl.c1ccc(NCc2cccc3ccccc23)nc1`: 4.1 µg/mL. Compound `Cc1cc(NC(=O)COc2ccccc2C(N)=O)no1` registered a kinetic solubility of 19.7 µg/mL (≈ 71.6 µM). With `Clc1ccc(Cn2ccnc2)cn1`, the solubility (kinetic) was determined as 24.2 µg/mL (≈ 125 µM).

Take `Nc1ccc(-c2nc3cc(N)ccc3o2)cc1`: the solubility (kinetic) was above 33.8 µg/mL. Next, `O=C1OC(Nc2ccc3ncccc3c2)c2ccccc21` (configuration not stated): 4.3 µg/mL (≈ 15.6 µM); `COc1ccc2nc(SCC(=O)NC3CC3)c(C#N)cc2c1`: 0.8 µg/mL (≈ 2.55 µM); `Cn1c(=O)c(Sc2ccccc2)c(O)c2ccccc21`: above 42.5 µg/mL.

Take `CC(=O)c1cccc(NC2c3ccccc3C(=O)N2Cc2ccco2)c1` (configuration not stated): the kinetic solubility was determined as 43.3 µg/mL (≈ 125 µM). With `CC(=O)c1c(C)[nH]c(C(=O)COC(=O)COc2ccccc2)c1C` the figure was 16.3 µg/mL (≈ 49.5 µM); with `O=C(NC1CCCC1)c1cc(-c2cccc(Cl)c2)on1`, 1.5 µg/mL (≈ 5.16 µM).
